What was measured:
Assay type in all cases: cell-based, human
MCF-7 = test: MTT survival assay, breast cancer cell line (MCF-7); set-up: IC50 (95% confidence level), interval: unit not given beside the values
Description: (§1) The effect of the above identified compounds on anti-tumor activity in human carcinoma cells was determined by the MTT survival assay. The MTT assay is a commonly used method in evaluation of cell survival, based on the ability of viable cells to convert MTT (MTT, Sigma, Cat No. 044K5307), a soluble tetrazolium salt [3-(4,5-dimethylthuazole-2-yl)-2,5 diphenyl tetrazolium bromide], into an insoluble formazan precipitate, which is quantitated by spectrophotometry following solubilization in dimethyl sulfoxide (DMSO).
(§2) In brief, different carcinoma cells were treated with negative control, various test articles at different concentration, and positive control (DDP), in 96-well tissue culture dishes. Each test article at different concentration is repeated 3 times.
(§3) Different carcinoma cells were diluted with 10% FBS and RPM1640 or MEM media to a concentration of 3-5×10^4 per ml suspension. 100 microliter of cells were incubated in each well in 96-well tissue culture dishes at 37 C. The cells were incubated at 37 C on the first day. On the second day, media supernatant was removed and replaced with media and different concentration of test articles (100 microliter in each well). Three Negative control wells and three positive control (DDP) wells were also included. The 96-well plate were incubated at 37 C for another 68 hours. After 68 hours, supernatant of each well was removed. 100 microliter of 1 mg/ml MTT diluted in PBS was injected into each well. The cells were incubated at 37 C for another 4 hours. The cells were then solubilized in 150 microliter DMSO, mixed for 10 minutes and absorbance readings were taken using Microplate reader Bio-Rad Model 550 at 570 nm. IR (cell growth inhibition rate) % was calculated as (OD570 of negative control-OD570 with test article)/OD570 of negative control. IC50 (cell 50% inhibition concentration) at 95% confidence level was calculated with Bliss method.

SKOV3 = test: MTT survival assay, ovarian cancer cell line (SKOV3); conditions: for IC50 (95% confidence level): Bliss method, unit not printed (concentrations in μg/ml)
Description: as §1, §2, §3

U251 = test: MTT survival assay, glioma cell line (brain tumor U251); conditions: for IC50 (95% confidence level): Bliss method, unit not printed (concentrations in μg/ml)
Description: as §1, §2, §3

Hela cells = test: MTT survival assay, cervical cancer line (Hela cells); set-up: IC50 (95% confidence level), interval: unit not given beside the values
Description: as §1, §2, §3

HCT116 = test: MTT survival assay, colon cancer cell line (HCT116); set-up: IC50 (95% confidence level), interval: unit not given beside the values
Description: as §1, §2, §3

A459 = test: MTT survival assay, lung cancer cell line (A459); set-up: IC50 (95% confidence level), interval: unit not given beside the values; conditions: for IC50 (95% confidence level), interval: 95% confidence limits of IC50; for IC50 (95% confidence level): Bliss method, unit not printed (concentrations in μg/ml)
Description: as §1, §2, §3

SMMC-7721 = test: MTT survival assay, liver cancer cell line (SMMC-7721)
Description: as §1, §2, §3

[1] = Bliss method, unit not printed (concentrations in μg/ml)
[2] = SKOV3 (first table), 0.0625 μg/ml
[3] = SKOV3 (first table), 0.25 μg/ml
[4] = SKOV3 (second table), 0.0625 μg/ml
[5] = SKOV3 (second table), 0.25 μg/ml
[6] = U251 (first table), 0.0625 μg/ml
[7] = U251 (second table), 0.0625 μg/ml
[8] = U251 (second table), 0.25 μg/ml
[9] = A459 Experiment #2, 0.0625 μg/ml
[10] = SMMC-7721 Experiment #2, 0.25 μg/ml
[11] = SMMC-7721 Experiment #2, 1 μg/ml
[12] = SMMC-7721 Experiment #2, 4 μg/ml

N.N.[Cl][Pt][Cl] [DDP, cisplatin, reference compound]
IR (%) (MCF-7; 0.0625 μg/ml): 12.8% | OD(A570 nm) (MCF-7; 0.0625 μg/ml): 0.787 ± 0.005 | IR (%) (MCF-7; 0.25 μg/ml): 2.6% | OD(A570 nm) (MCF-7; 0.25 μg/ml): 0.879 ± 0.059 | IR (%) (MCF-7; 1 μg/ml): 83.3% | OD(A570 nm) (MCF-7; 1 μg/ml): 0.151 ± 0.011 | IR (%) (MCF-7; 4 μg/ml): 88.2% | OD(A570 nm) (MCF-7; 4 μg/ml): 0.107 ± 0.007 | IC50 (95% confidence level), interval (MCF-7; 95% confidence limits of IC50): 0.483-0.737 | IC50 (95% confidence level) (MCF-7; [1]): 0.596 | IR (%) (SKOV3; [2]): 1.6% | OD(A570 nm) (SKOV3; [2]): 0.689 ± 0.065 | IR (%) (SKOV3; [3]): 8.3% | OD(A570 nm) (SKOV3; [3]): 0.643 ± 0.141 | IR (%) (SKOV3; SKOV3 (first table), 1 μg/ml): 62.0% | OD(A570 nm) (SKOV3; SKOV3 (first table), 1 μg/ml): 0.267 ± 0.044 | IR (%) (SKOV3; SKOV3 (first table), 4 μg/ml): 88.2% | OD(A570 nm) (SKOV3; SKOV3 (first table), 4 μg/ml): 0.083 ± 0.002 | IC50 (95% confidence level) (SKOV3; SKOV3 (first table)): 0.89 | IR (%) (SKOV3; [4]): 1.6% | OD(A570 nm) (SKOV3; [4]): 0.689 ± 0.065 | IR (%) (SKOV3; [5]): 8.3% | OD(A570 nm) (SKOV3; [5]): 0.643 ± 0.141 | IR (%) (SKOV3; SKOV3 (second table), 1 μg/ml): 62.0% | OD(A570 nm) (SKOV3; SKOV3 (second table), 1 μg/ml): 0.267 ± 0.044 | IR (%) (SKOV3; SKOV3 (second table), 4 μg/ml): 88.2% | OD(A570 nm) (SKOV3; SKOV3 (second table), 4 μg/ml): 0.083 ± 0.002 | IC50 (95% confidence level) (SKOV3; SKOV3 (second table)): 0.89 | IR (%) (U251; [6]): 16.8% | OD(A570 nm) (U251; [6]): 0.729 ± 0.090 | IR (%) (U251; U251 (first table), 0.25 μg/ml): 21.5% | OD(A570 nm) (U251; U251 (first table), 0.25 μg/ml): 0.688 ± 0.035 | IR (%) (U251; U251 (first table), 1 μg/ml): 58.4% | OD(A570 nm) (U251; U251 (first table), 1 μg/ml): 0.365 ± 0.058 | IR (%) (U251; U251 (first table), 4 μg/ml): 80.2% | OD(A570 nm) (U251; U251 (first table), 4 μg/ml): 0.174 ± 0.009 | IC50 (95% confidence level) (U251; U251 (first table)): 1.13 | IR (%) (U251; [7]): 16.8% | OD(A570 nm) (U251; [7]): 0.729 ± 0.090 | IR (%) (U251; [8]): 21.5% | OD(A570 nm) (U251; [8]): 0.688 ± 0.035 | IR (%) (U251; U251 (second table), 1 μg/ml): 58.4% | OD(A570 nm) (U251; U251 (second table), 1 μg/ml): 0.365 ± 0.058 | IR (%) (U251; U251 (second table), 4 μg/ml): 80.2% | OD(A570 nm) (U251; U251 (second table), 4 μg/ml): 0.174 ± 0.009 | IC50 (95% confidence level) (U251; U251 (second table)): 1.13 | IR (%) (Hela cells; 0.0625 μg/ml): 35.3% | OD(A570 nm) (Hela cells; 0.0625 μg/ml): 0.481 ± 0.081 | IR (%) (Hela cells; 0.25 μg/ml): 72.2% | OD(A570 nm) (Hela cells; 0.25 μg/ml): 0.206 ± 0.014 | IR (%) (Hela cells; 1 μg/ml): 83.4% | OD(A570 nm) (Hela cells; 1 μg/ml): 0.123 ± 0.007 | IR (%) (Hela cells; 4 μg/ml): 89.5% | OD(A570 nm) (Hela cells; 4 μg/ml): 0.078 ± 0.001 | IC50 (95% confidence level), interval (Hela cells; 95% confidence limits of IC50): 0.062-0.156 | IC50 (95% confidence level) (Hela cells; [1]): 0.105 | IR (%) (HCT116; 0.25 μg/ml): 51.0% | OD(A570 nm) (HCT116; 0.25 μg/ml): 0.266 ± 0.016 | IR (%) (HCT116; 1 μg/ml): 62.9% | OD(A570 nm) (HCT116; 1 μg/ml): 0.201 ± 0.060 | IR (%) (HCT116; 4 μg/ml): 75.5% | OD(A570 nm) (HCT116; 4 μg/ml): 0.133 ± 0.016 | IC50 (95% confidence level), interval (HCT116; 95% confidence limits of IC50): 0.211-0.257 | IC50 (95% confidence level) (HCT116; [1]): 0.234 | IR (%) (A459; A459, 0.0625 μg/ml): 23.9% | OD(A570 nm) (A459; A459, 0.0625 μg/ml): 0.485 ± 0.046 | IR (%) (A459; A459, 0.25 μg/ml): 18.8% | OD(A570 nm) (A459; A459, 0.25 μg/ml): 0.517 ± 0.073 | IR (%) (A459; A459, 1 μg/ml): 46.4% | OD(A570 nm) (A459; A459, 1 μg/ml): 0.341 ± 0.060 | IR (%) (A459; A459, 4 μg/ml): 71.0% | IC50 (95% confidence level), interval (A459; A459): 1.113-1.213 | IC50 (95% confidence level) (A459; A459): 1.162 | IR (%) (A459; [9]): 23.9% | OD(A570 nm) (A459; [9]): 0.485 ± 0.046 | IR (%) (A459; A459 Experiment #2, 0.25 μg/ml): 18.8% | OD(A570 nm) (A459; A459 Experiment #2, 0.25 μg/ml): 0.517 ± 0.073 | IR (%) (A459; A459 Experiment #2, 1 μg/ml): 46.4% | OD(A570 nm) (A459; A459 Experiment #2, 1 μg/ml): 0.341 ± 0.060 | IR (%) (A459; A459 Experiment #2, 4 μg/ml): 71.0% | IC50 (95% confidence level), interval (A459; A459 Experiment #2): 1.114-1.213 | IC50 (95% confidence level) (A459; A459 Experiment #2): 1.162 | IR (%) (SMMC-7721; SMMC-7721, 0.0625 μg/ml): −29.4% | OD(A570 nm) (SMMC-7721; SMMC-7721, 0.0625 μg/ml): 0.570 ± 0.166 | IR (%) (SMMC-7721; SMMC-7721, 0.25 μg/ml): 46.2% | OD(A570 nm) (SMMC-7721; SMMC-7721, 0.25 μg/ml): 0.237 ± 0.020 | IR (%) (SMMC-7721; SMMC-7721, 1 μg/ml): 71.0% | OD(A570 nm) (SMMC-7721; SMMC-7721, 1 μg/ml): 0.128 ± 0.011 | IR (%) (SMMC-7721; SMMC-7721, 4 μg/ml): 61.6% | OD(A570 nm) (SMMC-7721; SMMC-7721, 4 μg/ml): 0.169 ± 0.022 | IR (%) (SMMC-7721; [10]): 24.5% | OD(A570 nm) (SMMC-7721; [10]): 0.348 ± 0.045 | IR (%) (SMMC-7721; [11]): 43.1% | OD(A570 nm) (SMMC-7721; [11]): 0.262 ± 0.020 | IR (%) (SMMC-7721; [12]): 47.0% | OD(A570 nm) (SMMC-7721; [12]): 0.244 ± 0.155 | IC50 (95% confidence level), interval (SMMC-7721; SMMC-7721 Experiment #2, 95% confidence limits of IC50): 3.757-4.640 | IC50 (95% confidence level) (SMMC-7721; SMMC-7721 Experiment #2, Bliss method, unit not printed (concentrations in μg/ml)): 4.155

From patent US20100189648A1, “INHIBITORS FOR DISRUPTING THE INTERACTION OF UBIQUITINATION RELATED ENZYMES AND USES THEREOF” (priority 2006, published 2010)
